From ChEMBL document CHEMBL5370593, “Discovery and In Vitro Characterization of SPL028: Deuterated N,N-Dimethyltryptamine” (ACS Med Chem Lett, 2023)

Tests used:
[1] = target: Neuronal acetylcholine receptor; alpha3/beta4 (Homo sapiens, UniProt P30926+P32297); experiment: Displacement of [125I]-epibatidine from human recombinant nAChR alpha3beta4 receptor expressed in CHO-K1 cells at 10 uM incubated for 60 mins by spectrophotometric analysis relative to control; type: cell-based
[2] = target: 5-hydroxytryptamine receptor 1A (Homo sapiens) (UniProt P08908); experiment: Displacement of [3H] 8-OH-DPAT from human recombinant 5-HT1A receptor expressed in CHO-K1 cells at 10 uM incubated for 60 mins by spectrophotometric analysis relative to control; type: cell-based
Chain of 5-hydroxytryptamine receptor 1A (Homo sapiens) (P08908 whole entry): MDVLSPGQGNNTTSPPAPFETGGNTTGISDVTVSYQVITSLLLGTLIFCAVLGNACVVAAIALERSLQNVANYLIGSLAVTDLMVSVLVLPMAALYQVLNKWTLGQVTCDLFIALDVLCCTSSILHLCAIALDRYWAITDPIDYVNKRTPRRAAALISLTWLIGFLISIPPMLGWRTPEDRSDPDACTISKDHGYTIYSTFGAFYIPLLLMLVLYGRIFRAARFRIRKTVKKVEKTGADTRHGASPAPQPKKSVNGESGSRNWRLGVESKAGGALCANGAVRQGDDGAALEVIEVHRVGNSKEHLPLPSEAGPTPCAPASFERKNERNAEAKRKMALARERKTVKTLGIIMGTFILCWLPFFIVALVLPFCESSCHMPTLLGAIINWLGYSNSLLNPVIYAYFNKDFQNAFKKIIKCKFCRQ

CN(C)CCc1c[nH]c2ccccc12.O=C(O)/C=C/C(=O)O
inhibition [1]: 64.6%
inhibition ([1]; tested as the 2H-labelled form): 63.5%
inhibition [2]: 96%
inhibition ([2]; tested as the 2H-labelled form): 97.6%
